“And” between values parts separate entries of the source, which are not always exact repeats. Equal entries are not always repeated.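 Each compound was tested at five concentrations against cells in 96-well plates for 48 hours. The concentration for 50% growth inhibition is given as GI50. TGI marks complete inhibition of growth.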
How the values were obtained:
Experiment in all cases: NCI tumour cell line growth inhibition, 48 h
HOP-18 NSCLC = tested on: HOP-18 NSCLC
SN12K1 renal = tested on: SN12K1 renal
P388/ADR leukemia = tested on: P388/ADR leukemia
DLD-1 colon = tested on: DLD-1 colon
P388 leukemia = tested on: P388 leukemia
M19-MEL melanoma = tested on: M19-MEL melanoma
XF 498 CNS = tested on: XF 498 CNS
SNB-78 CNS = tested on: SNB-78 CNS
KM20L2 colon = tested on: KM20L2 colon
DMS 114 small cell lung = tested on: DMS 114 small cell lung

Structure (SMILES) | TGI (HOP-18 NSCLC) | TGI (SN12K1 renal) | TGI (P388/ADR leukemia) | TGI (DLD-1 colon) | TGI (P388 leukemia) | TGI (M19-MEL melanoma) | TGI (XF 498 CNS) | TGI (SNB-78 CNS) | TGI (KM20L2 colon) | TGI (DMS 114 small cell lung) | GI50 (HOP-18 NSCLC) | GI50 (SN12K1 renal) | GI50 (P388/ADR leukemia) | GI50 (DLD-1 colon) | GI50 (P388 leukemia) | GI50 (M19-MEL melanoma) | GI50 (SNB-78 CNS) | GI50 (KM20L2 colon) | GI50 (DMS 114 small cell lung)
Cc1[nH]c(=O)[nH]c(=O)c1/C=C/C(=O)NC(CO)CS(=O)CS(C)=O (configuration not stated) | 551 µM | 64.8 µM | 225 µM | 253 µM | 74.8 µM | 74.3 µM | 8.12 µM | 97.5 µM | 328 µM | 42 µM | – | – | – | – | – | – | – | – | –
COc1ccc(-c2nc3c(nc2-c2ccc(OC)cc2)C(N)=NS(=O)(=O)N3)cc1 | – | – | – | > 100 µM | – | > 100 µM | – | – | – | > 100 µM | – | – | – | – | – | – | – | – | –
CSc1nc(CO)c(CO)n1C | > 100 µM | > 100 µM | > 100 µM | > 100 µM | > 100 µM | > 100 µM | > 100 µM | > 100 µM | > 100 µM | > 100 µM | – | – | – | – | – | – | – | – | –
Nc1ccc(O)c2c1C(=O)c1c(N)ccc(O)c1C2=O | – | – | – | > 100 µM | – | > 100 µM | > 100 µM | > 100 µM | – | > 100 µM | – | – | – | – | – | – | – | – | –
O=C(NC(Cc1ccc(Br)cc1)C(=O)O)c1ccc(I)cc1 (configuration not stated) | > 100 µM | > 100 µM | > 100 µM | > 100 µM | > 100 µM | > 100 µM | > 100 µM | > 100 µM | > 100 µM | > 100 µM | – | – | – | – | – | – | – | – | –
CC1C(=O)CC(c2cccs2)N(N=O)C1c1cccs1 (configuration not stated) | > 100 µM | > 100 µM | 40.8 µM | > 100 µM | 43.1 µM | > 100 µM | 45.3 µM | > 85.2 µM | > 100 µM | – | – | – | – | – | – | – | – | – | –
CN(C)CCNC(=O)c1cc(Cl)cc2cc3ccccc3nc12 | 21.3 µM | 3.34 µM | – | 5.35 µM | 20.1 µM | 3.56 µM | 3.37 µM | 7.56 µM | 1.42 µM | 2.21 µM | – | – | – | – | – | – | – | – | –
CC[C@@]1(O)C(=O)OCc2c1cc1n(c2=O)Cc2cc3ccccc3nc2-1 | 2.14 µM | 1 µM | 0.677 µM | 25.7 µM | 0.42 µM | 1.35 µM | 0.259 µM | > 20.5 µM | 3.65 µM | 3.27 µM | – | – | – | – | – | – | – | – | –
CCN(CC)CC[n+]1ccc2c(C)c3[nH]c4ccc(O)cc4c3c(C)c2c1 | 17.9 µM and 42.8 µM | 11.9 µM and 16.6 µM | 64.7 µM and 91.7 µM | > 96.4 µM and 102 µM | 2.48 µM and 4.85 µM | 5.48 µM and 6.71 µM | – | 44.1 µM and 59.5 µM | 35.8 µM and 46.4 µM | 8.87 µM and 15.4 µM | 5.6 µM | 0.748 µM | 5.08 µM | 7.81 µM | 0.0256 µM | 0.954 µM | 5.71 µM | 6.95 µM | 0.652 µM
COC(=O)C1=C(C)N2CCSC2(C)C(C(=O)OC)C1c1cccc(Cl)c1 (configuration not stated) | – | – | – | – | – | 31.9 µM | – | – | 43.4 µM | 44.6 µM | – | – | – | – | – | – | – | – | –

From PubChem BioAssay (NCI)
